{
  "source": "patent US7759366B2",
  "about": "(Sanofi-Aventis, priority 2006, dated 2010)",
  "target": "hCB1R (Homo sapiens, UniProt P21554)",
  "sequence (P21554 whole entry)": "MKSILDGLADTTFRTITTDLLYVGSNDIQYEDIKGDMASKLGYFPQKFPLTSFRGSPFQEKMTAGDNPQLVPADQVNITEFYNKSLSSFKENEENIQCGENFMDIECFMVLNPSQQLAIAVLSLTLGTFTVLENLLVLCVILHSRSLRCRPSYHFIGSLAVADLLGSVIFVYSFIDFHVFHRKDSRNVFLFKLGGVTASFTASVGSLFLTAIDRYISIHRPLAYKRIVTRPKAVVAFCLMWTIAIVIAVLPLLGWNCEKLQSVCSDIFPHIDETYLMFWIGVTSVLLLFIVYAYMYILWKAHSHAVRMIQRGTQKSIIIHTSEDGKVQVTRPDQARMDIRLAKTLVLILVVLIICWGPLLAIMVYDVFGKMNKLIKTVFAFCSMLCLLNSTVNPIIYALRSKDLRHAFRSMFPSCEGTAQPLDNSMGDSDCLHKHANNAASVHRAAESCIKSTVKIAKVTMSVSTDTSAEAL",
  "test": "Binding to the CB1 receptor ([3H]-SR141716A displacement)",
  "experimental": "Binding to the CB1 Receptor:\nTest compounds: The compounds (3 μl, 10 mM, 100% DMSO), pipetted into 96-well PP microtiter plates, were diluted with 27 μl of 100% DMSO (dimethyl sulfoxide). Proceeding from this solution, further 3-fold dilution steps were undertaken by transferring 10 μl in each case to a new PP microtiter plate and adding a further 20 μl of 100% DMSO. In each case 6 μl of these solutions were transferred into new 96-well PP microtiter plates and made up with 144 μl of assay buffer. The end concentrations ranged from 10 μM to 0.005 μM. Negative control: AM 251, dissolved in assay buffer with 1% DMSO, was added to the dilution series in the microtiter plates as a control. The end concentration was 1 μM. Blank control: assay buffer with 1% DMSO was added to the dilution series of the microtiter plates as a blank control.\nSummary of the Assay Parameters:\nHigh control: ^3H binding without addition of the compound\nLow control: ^3H binding in the presence of 1 μM AM 251\nThe values were calculated using the corrected raw data.\nThe values reported were obtained as average values of a double determination. The IC50 values were calculated from the measurements with the program Xlfit, formula 205. Ki values were obtained from the IC50 and Kd values utilizing the Cheng-Prusoff equation: […]\nLiterature: Cheng, Y.-C., and Prusoff, W. H. (1973) Biochem. Pharmacol 22, 3099-3108",
  "key": {"[1]": {"conditions": "CHO-K1/cannabinoid CB1 protein 2 μg/well, [3H]-SR141716A 0.5 nM, Ki from IC50 by Cheng-Prusoff, average of double determination, read-out: hCB1R, binding Ki"}},
  "note": "Read-outs that look alike come from different tables or passages of the source.",
  "data": [
    {"smiles": "CC1(C)C(=O)N(c2ccc(C#N)c(C(F)(F)F)c2)C(=O)N1Cc1ccccc1Nc1ccc(OC(F)(F)F)cc1", "note": "[Example 12, 4-{3-[2-(4-trifluoromethoxy-phenylamino)benzyl]-4,4-dimethyl-2,5-dioxoimidazolidin-1-yl}-2-trifluoromethylbenzonitrile]", "values": [
      {"measurement": "Ki", "value": 0.9, "unit": "nM"}
    ]},
    {"smiles": "CC1(C)C(=O)N(c2ccc(C#N)c(C(F)(F)F)c2)C(=O)N1Cc1ccccc1Nc1ccc(C=O)cc1", "note": "[Example 120, 4-{3-[2-(4-formylphenylamino)benzyl]-4,4-dimethyl-2,5-dioxoimidazolidin-1-yl}-2-trifluoromethylbenzonitrile]", "values": [
      {"measurement": "Ki", "value": 5, "unit": "nM"}
    ]},
    {"smiles": "CC1(C)C(=O)N(c2ccc(C#N)c(C(F)(F)F)c2)C(=O)N1Cc1ccccc1Nc1ccc([N+](=O)[O-])cc1", "note": "[Example 112, 4-{4,4-dimethyl-3-[2-(4-nitrophenylamino)benzyl]-2,5-dioxoimidazolidin-1-yl}-2-trifluoromethylbenzonitrile]", "values": [
      {"measurement": "Ki", "value": 1, "unit": "nM"}
    ]},
    {"smiles": "CC1(C)C(=O)N(c2ccc(C#N)c(C(F)(F)F)c2)C(=O)N1Cc1ccccc1Nc1ccc(S(C)(=O)=O)cc1", "note": "[Example 27, 4-{3-[2-(4-methylsulfonylphenylamino)benzyl]-4,4-dimethyl-2,5-dioxoimidazolidin-1-yl}-2-trifluoromethylbenzonitrile]", "values": [
      {"measurement": "Ki", "value": 17, "unit": "nM"}
    ]},
    {"smiles": "CC1(C)C(=O)N(c2ccc(F)c(C(F)(F)F)c2)C(=O)N1Cc1ccc(F)cc1Nc1ccc(C(=O)NC[C@H](O)[C@@H](O)[C@H](O)[C@H](O)CO)cc1", "note": "[Example 170, 4-{5-Fluoro-2-[3-(4-fluoro-3-trifluoromethylphenyl)-5,5-dimethyl-2,4-dioxoimidazolidin-1-ylmethyl]phenylamino}-N-((2S,3R,4R,5R)-2,3,4,5,6-pentahydroxyhexyl)benzamide]", "values": [
      {"measurement": "Ki", "setting": "[1]", "value": 113, "unit": "nM"}
    ]},
    {"smiles": "CCOC(=O)c1ccc(Nc2cc(C(F)(F)F)ccc2CN2C(=O)N(c3ccc(C#N)c(C(F)(F)F)c3)C(=O)C2(C)C)cc1", "note": "[Example 165, ethyl 4-{2-[3-(4-cyano-3-trifluoromethylphenyl)-5,5-dimethyl-2,4-dioxoimidazolidin-1-ylmethyl]-5-trifluoromethylphenylamino}benzoate]", "values": [
      {"measurement": "Ki", "value": 16, "unit": "nM"}
    ]},
    {"smiles": "CC1(C)C(=O)N(c2ccc(C#N)c(C(F)(F)F)c2)C(=O)N1Cc1cc(F)ccc1Nc1ccc(Cl)cc1", "note": "[Example 16, 4-{3-[2-(4-chlorophenylamino)-5-fluorobenzyl]-4,4-dimethyl-2,5-dioxoimidazolidin-1-yl}-2-trifluoromethylbenzonitrile]", "values": [
      {"measurement": "Ki", "value": 2, "unit": "nM"}
    ]},
    {"smiles": "CC1(C)C(=O)N(c2ccc(C#N)c(C(F)(F)F)c2)C(=O)N1Cc1ccccc1Nc1ccc(C(=O)NN2CCCCC2)cc1", "note": "[Example 174, 4-{2-[3-(4-Cyano-3-trifluoromethylphenyl)-5,5-dimethyl-2,4-dioxoimidazolidin-1-ylmethyl]phenylamino}-N-piperidin-1-ylbenzamide]", "values": [
      {"measurement": "Ki", "setting": "[1]", "value": 144, "unit": "nM"}
    ]},
    {"smiles": "COc1ccc(Nc2ccc(Cl)cc2)c(CN2C(=O)N(c3ccc(C#N)c(C(F)(F)F)c3)C(=O)C2(C)C)c1", "note": "[Example 9, 4-{3-[2-(4-chlorophenylamino)-5-methoxybenzyl]-4,4-dimethyl-2,5-dioxoimidazolidin-1-yl}-2-trifluoromethylbenzonitrile]", "values": [
      {"measurement": "Ki", "value": 13, "unit": "nM"}
    ]},
    {"smiles": "CC1(C)C(=O)N(c2ccc(F)c(C(F)(F)F)c2)C(=O)N1Cc1ccc(F)cc1Nc1ccc(C(=O)N2CCC(O)CC2)cc1", "note": "[Example 171, 1-{4-Fluoro-2-[4-(4-hydroxypiperidine-1-carbonyl)phenylamino]benzyl}-3-(4-fluoro-3-trifluoromethylphenyl)-5,5-dimethylimidazolidine-2,4-dione]", "values": [
      {"measurement": "Ki", "setting": "[1]", "value": 120, "unit": "nM"}
    ]},
    {"smiles": "CC1(C)C(=O)N(c2ccc(C#N)c(C(F)(F)F)c2)C(=O)N1Cc1ccccc1Nc1cccc(S(N)(=O)=O)c1", "note": "[Example 153, 3-{2-[3-(4-Cyano-3-trifluoromethylphenyl)-5,5-dimethyl-2,4-dioxoimidazolidin-1-ylmethyl]phenylamino}benzenesulfonamide]", "values": [
      {"measurement": "Ki", "value": 20, "unit": "nM"}
    ]},
    {"smiles": "COC(=O)c1ccc(Nc2cc(F)ccc2CN2C(=O)N(c3ccc(C#N)c(C(C)(C)C)c3)C(=O)C2(C)C)cc1", "note": "[Example 157, methyl 4-{2-[3-(3-tert-butyl-4-cyanophenyl)-5,5-dimethyl-2,4-dioxoimidazolidin-1-ylmethyl]-5-fluorophenylamino}benzoate]", "values": [
      {"measurement": "Ki", "value": 5, "unit": "nM"}
    ]},
    {"smiles": "CC1(C)C(=O)N(c2ccc(C#N)c(C(F)(F)F)c2)C(=O)N1Cc1cc(F)ccc1Nc1ccc(F)cc1", "note": "[Example 15, 4-{3-[5-Fluoro-2-(4-fluorophenylamino)benzyl]-4,4-dimethyl-2,5-dioxoimidazolidin-1-yl}-2-trifluoromethylbenzonitrile]", "values": [
      {"measurement": "Ki", "value": 2, "unit": "nM"}
    ]},
    {"smiles": "CC1(C)C(=O)N(c2ccc(C#N)c(C(F)(F)F)c2)C(=O)N1Cc1ccc(C#N)cc1Nc1ccc(C(=O)O)cc1", "note": "[Example 132, 4-{5-cyano-2-[3-(4-cyano-3-trifluoromethylphenyl)-5,5-dimethyl-2,4-dioxoimidazolidin-1-ylmethyl]phenylamino}benzoic acid]", "values": [
      {"measurement": "Ki", "value": 6, "unit": "nM"}
    ]},
    {"smiles": "CC1(C)C(=O)N(c2ccc(C#N)c(C(F)(F)F)c2)C(=O)N1Cc1ccccc1Nc1ccc(N(S(C)(=O)=O)S(C)(=O)=O)cc1", "note": "[Example 176]", "values": [
      {"measurement": "Ki", "setting": "[1]", "value": 130, "unit": "nM"}
    ]},
    {"smiles": "COc1ccc(Nc2ccc(C#N)c(C(F)(F)F)c2)c(CN2C(=O)N(c3ccc(C#N)c(C(F)(F)F)c3)C(=O)C2(C)C)c1", "note": "[Example 10, 4-{3-[2-(4-cyano-3-trifluoromethylphenylamino)-5-methoxybenzyl]-4,4-dimethyl-2,5-dioxoimidazolidin-1-yl}-2-trifluoromethylbenzonitrile]", "values": [
      {"measurement": "Ki", "value": 24, "unit": "nM"}
    ]},
    {"smiles": "CC1(C)C(=O)N(c2ccc(C#N)c(C(F)(F)F)c2)C(=O)N1Cc1ccccc1Nc1ccc(F)cc1C#N", "note": "[Example 53, 4-{3-[2-(2-cyano-4-fluorophenylamino)benzyl]-4,4-dimethyl-2,5-dioxoimidazolidin-1-yl}-2-trifluoromethylbenzonitrile]", "values": [
      {"measurement": "Ki", "value": 2, "unit": "nM"}
    ]},
    {"smiles": "CC1(C)C(=O)N(c2ccc(C#N)c(C(F)(F)F)c2)C(=O)N1Cc1ccccc1Nc1ccc(C(=O)O)cc1", "note": "[Example 62]", "values": [
      {"measurement": "Ki", "value": 16, "unit": "nM"}
    ]},
    {"smiles": "CC1(C)C(=O)N(c2ccc(C#N)c(S(F)(F)(F)(F)F)c2)C(=O)N1Cc1ccccc1Nc1ccc(F)cc1F", "note": "[Example 51, 4-{3-[2-(2,4-Difluorophenylamino)benzyl]-4,4-dimethyl-2,5-dioxoimidazolidin-1-yl}-2-pentafluorosulfanylbenzonitrile]", "values": [
      {"measurement": "Ki", "value": 2, "unit": "nM"}
    ]},
    {"smiles": "CC(C)(C)c1cc(N2C(=O)N(Cc3ccccc3Nc3ccccc3)C(C)(C)C2=O)ccc1C#N", "note": "[Example 63, 2-tert-Butyl-4-[4,4-dimethyl-2,5-dioxo-3-(2-phenylaminobenzyl)imidazolidin-1-yl]benzonitrile]", "values": [
      {"measurement": "Ki", "value": 9, "unit": "nM"}
    ]},
    {"smiles": "CCNS(=O)(=O)c1ccc(Nc2ccccc2CN2C(=O)N(c3ccc(C#N)c(C(F)(F)F)c3)C(=O)C2(C)C)cc1", "note": "[Example 151, 4-{2-[3-(4-cyano-3-trifluoromethylphenyl)-5,5-dimethyl-2,4-dioxoimidazolidin-1-ylmethyl]phenylamino}-N-ethylbenzenesulfonamide]", "values": [
      {"measurement": "Ki", "setting": "[1]", "value": 155, "unit": "nM"}
    ]},
    {"smiles": "COc1ccc(Nc2ccccc2)c(CN2C(=O)N(c3ccc(C#N)c(C(F)(F)F)c3)C(=O)C2(C)C)c1", "note": "[Example 6, 4-[3-(5-Methoxy-2-phenylaminobenzyl)-4,4-dimethyl-2,5-dioxoimidazolidin-1-yl]-2-trifluoromethylbenzonitrile]", "values": [
      {"measurement": "Ki", "value": 21, "unit": "nM"}
    ]}
  ]
}
